Reference: patent publication US20220079966A1, “HYALURONAN SYNTHESIS INHIBITION FOR TREATING AUTOIMMUNE, INFLAMMATORY, FIBROTIC, OR PROLIFERATIVE DISEASES OR DISORDERS” (The Board of Trustees of the Leland Stanford Junior …, priority 2018, published 2022)

Tests used:
db/db mice = assay: db/db mouse model of type 2 diabetes; assay type: in vivo; conditions: for body weight of db/db mice: after start of treatment; for intra-peritoneal glucose tolerance testing (IPGTT): fasting db/db mice fed drug for previous 2 weeks; for HA staining in pancreatic islets of db/db mice: mouse, in vivo; for blood glucose (BG) levels in db/db mice: over one month, 4-MU chow or 4-MUG in drinking water vs control chow
Description: All animals were bred and maintained under specific pathogen-free conditions, with free access to food and water, in the animal facilities at Stanford University Medical School (Stanford, Calif.). B6 db/db LeptR−/− mice were purchased from Jackson Laboratories (JAX) as well as DO11.10 transgenic mice. The DO11.10 mice were bred with Balb/c mice expressing RIPmOva (ovalbumin peptide amino acids 323-339; available at the Benaroya Research Institute) to generate the DORmO double-transgenic mice. In addition, C57Bl/6J mice were bred in-house at Stanford University School of Medicine.
Beginning at four weeks of age, mice were weighed weekly as well as bled via the tail vein for the determination of their blood glucose level using a Contour® blood glucose meter and blood glucose monitoring strips (Bayer Healthcare). When two consecutive blood glucose readings of 250 mg/dL were recorded, animals were considered diabetic. When two consecutive blood glucose readings of 300 mg/dL were recorded, animals were euthanized.
(§1) The 4-MU (Alfa Aesar) was pressed into mouse chow (TestDiet, St. Louis, Mo.) and irradiated before shipment, as previously described (Nagy N., et al., Circulation. 2010; 122(22):2313-2322). This chow formulation delivers 250 mg/mouse/day, yielding a serum drug concentration of 640.3±17.2 nmol/L in mice, as measured by HPLC-MS. 4-MUG (ChemImpex, Wood Dale, Ill.) was distributed in the drinking water at a concentration of 2 mg/ml, delivering 10 mg/mouse/day, yielding a serum drug concentration of 357.1±72.6 ng/mL in mice, as measured by LC-MS/MS. Mice were initiated on 4-MU and 4-MUG at five, eight or twelve weeks of age, unless otherwise noted, and were maintained on this diet until they were euthanized, unless otherwise noted. For analysis of Foxp3+ regulatory T-cell numbers in naïve mice, mice were treated daily with 0.5 mg of 4-MU or 1.0 mg 4-MUG in 200 μl 0.08% carboxymethylcellulose in saline by intra-peritoneal injection.
To assess whether 4-MUG is effective against HA synthesis in a different inflammatory disease that is non-autoimmune in nature, the role of 4-MUG in the db/db model of type 2 diabetes was investigated. db/db mice lack a functional leptin receptor and are obese and diabetic.
Referring to FIG. 7D, the beneficial effect of 4-MU and 4-MUG on glycemic control was maintained for at least 10 weeks, indicating a lasting improvement. FIGS. 7F and 7G show intra-peritoneal glucose tolerance testing (IPGTT) of fasting db/db mice fed 4-MU or 4-MUG for 2 weeks.

B16F10 cells [1] = assay: HA production and HA staining by B16F10 melanoma cells (HA ELISA, HABP staining); assay type: cell-based, murine; conditions: for HA production (HA synthesis inhibition) by B16F10 cells: 48 hours of drug exposure, 30, 100, 300 μM, HA ELISA; for HA staining of B16F10 cells with HA binding protein (HABP): fluorescent staining
Procedure: To test this, murine melanoma cells (B16F10), a cell line known to produce abundant HA, were used. […] FIGS. 4D and 4E show HA production by B16F10 cells cultured for 48 hours in 4-MU (FIG. 1D) or 4-MUG (FIG. 1E). […] Data represent mean±SEM; *, p<0.05 by unpaired t test. Similar findings were seen as well in primary lymphocytes.
B16F10 cells were cultured in DMEM and were treated with different concentrations of 4-MU and 4-MUG (30, 100, 300 μM) for 24 and 48 hours. Cultured cells were lysed and analyzed for HA concentration determination using an HA ELISA. HA staining in B16F10 cells placed in 96 well plates were imaged using fluorescence microscopy. To measure 4-MU florescence intensity in B16F10 cells treated with 4-MU and 4-MUG, B16F10 cells were trypsinized and 4-MU fluorescence associated with the cells was analyzed by flow cytometry in the Pacific Blue channel using a BD™ LSRII flow cytometer. For permeabilization, after trypsinization, cells were incubated in methanol at −20° C. for 20 min and washed once before flow cytometric analysis.
(§2) Samples were thawed and assayed for HA levels using a modified HA ELISA as previously described (Nagy N., et al., J. Clin. Invest. 2015; 125(10):3928-3940). Each sample was analyzed in triplicate with a mean value obtained per sample. For cell normalization, LI-COR CellTag™ 700 Stain was used according to the manufactures protocol.

CTLL2 cells = assay: HA synthesis inhibition in CTLL2 lymphoma cells; assay type: cell-based; conditions: lymphoma cell line
Procedure: as §2

B16F10 cells [2] = assay: 4-MU fluorescence of treated B16F10 cells by flow cytometry, pre- and post-permeabilization; assay type: in vitro ADME, murine
Procedure: Fluorescent values of 4-MUG were normalized to the 4-MU fluorescence. Referring to FIG. 2 B, 4-MU or 4-MUG was added to PBS with 10% FCS and the increase of fluorescence signal using a fluorescence plate reader was monitored at intervals up to 72 hours. […] B16F10 cells were cultured in DMEM and were treated with different concentrations of 4-MU and 4-MUG (30, 100, 300 μM) for 24 and 48 hours. Cultured cells were lysed and analyzed for HA concentration determination using an HA ELISA. HA staining in B16F10 cells placed in 96 well plates were imaged using fluorescence microscopy. To measure 4-MU florescence intensity in B16F10 cells treated with 4-MU and 4-MUG, B16F10 cells were trypsinized and 4-MU fluorescence associated with the cells was analyzed by flow cytometry in the Pacific Blue channel using a BD™ LSRII flow cytometer. For permeabilization, after trypsinization, cells were incubated in methanol at −20° C. for 20 min and washed once before flow cytometric analysis.

[3] = cited from earlier work
Min6 cells = assay: HA synthesis inhibition in Min6 insulinoma cells; assay type: cell-based; conditions: insulinoma cell line
Procedure: as §2

[4] = test system: Foxp3+ regulatory T-cells; assay: Splenocyte regulatory T-cell analysis in wild type mice treated i.p. for 14 days; assay type: in vivo; conditions: 4-MU 0.5 mg i.p. or 4-MUG 1 mg i.p. daily for 14 days; for Foxp3+ amongst CD3+/CD4+ cells in splenocytes: flow cytometry
Procedure: as §1
Spleens were extracted from mice and cells were harvested by homogenization through a 70 μm cell strainer. Red blood cells were lysed using ACK buffer, after which the splenocyte suspensions were stained according to the protocol described above with the following fluorochrome-conjugated antibodies. V500-CD3 (500A2), BV785-CD4 (RM4-5) and A1488-Foxp3 (FJK-16s). Flow cytometry was performed on an LSRII and data analysis was done using FlowJo (Treestar).

time after which treated B16F10 cells became fluorescent (B16F10 cells [2]; incubated 24, 48 or 72 hours, flow cytometry) | fluorescence of treated B16F10 cells upon permeabilization (B16F10 cells [2]) | Structure (SMILES) | body weight of db/db mice (db/db mice) | intra-peritoneal glucose tolerance testing (IPGTT) (db/db mice) | HA staining in pancreatic islets of db/db mice (db/db mice) | blood glucose (BG) levels in db/db mice (db/db mice) | HA production (HA synthesis inhibition) by B16F10 cells (B16F10 cells [1]) | HA staining of B16F10 cells with HA binding protein (HABP) (B16F10 cells [1]) | HA synthesis inhibition in CTLL2 cells (CTLL2 cells) | concentration of 4-MUG relative to parent molecule 4-MU ([3]; animal studies) | median plasma concentration of 4-MUG relative to 4-MU ([3]; mouse models) | HA synthesis inhibition in Min6 cells (Min6 cells) | CD4+ and CD3+ T-cell numbers in splenocytes [4] | Foxp3+ MFI amongst CD3+/CD4+ cells in splenocytes [4] | Foxp3+ amongst CD3+/CD4+ cells in splenocytes [4] | half-life ([3]; in mice)
48 to 72 h | – | Cc1cc(=O)oc2cc(O[C@@H]3O[C@H](C(=O)O)[C@@H](O)[C@H](O)[C@H]3O)ccc12 [4-MUG, 4-methylumbelliferone-glucuronide] | soon recovered | improvement in glycemic control | reduced HA staining | reliably decreased blood glucose | concentration dependent inhibition of HA synthesis | reduced HA | inhibited HA synthesis | 300 fold | more than 3,000 fold | inhibited HA synthesis | not affected | increase in their expression of Foxp3 | increase of Foxp3+ regulatory T-cells | –
– | lost upon permeabilization | Cc1cc(=O)oc2cc(O)ccc12 [4-MU, 4-methylumbelliferone] | initial decrease in weight | improvement in glycemic control | reduced HA staining | reliably decreased blood glucose | concentration dependent inhibition of HA synthesis | reduced HA | HA synthesis inhibition | – | – | HA synthesis inhibition | not affected | increase in their expression of Foxp3 | increase of Foxp3+ regulatory T-cells | 3 min
